Reference: patent publication US20260355213A1, “TREATMENT OF INFECTIONS CAUSED BY INTRACELLULAR PATHOGENS” (Sheba Impact Ltd., priority 2023, published 2026)

Tests used:
[1] = tested on: Listeria monocytogenes in HeLa cells; experiment: Intracellular Listeria monocytogenes infection of HeLa cells (CFU at 6 h p.i.); assay type: cell-based; details: 10 μM
Method: 4×10^5 HeLa cells were seeded in a 24-well tissue culture treated plate and incubated for 24 h at 37 °C under 5% CO2 atmosphere. On the next day, cells were incubated for 3 h with fresh DMEM supplemented with the PCM-0094889, PCM-0086166, PCM-0004846, PCM-0103431, PCM-0095494, PCM-0095293, PCM-0001349, and PCM-0095564 compounds at a final concentration of 10 μM. overnight cultures of Listeria monocytogenes that were grown statically at 37 °C were washed and resuspended in PBS. Cell infection at am MOI of 1:50 was conducted by adding 20 μl of Listeria suspension to each well, following by incubation at 37 °C under 5% CO2 atmosphere. 30 min p.i. the cells were washed with PBS and the medium was replaced with fresh medium supplemented with 10 μM of the tested compounds. One h p.i., gentamycin was added to each well at a final concentration of 50 μg/ml. At 6 h p.i., the cells were washed with PBS and lysed with 250 μl DDW at room temperature. The cell lysates were then diluted in PBS and plated on LB plates for CFU count. Intracellular Listeria infection was calculated as the number of intracellular bacteria recovered at 6 h p.i., divided by the infecting inoculum (CFUs). Listeria infection in the presence of the compounds is shown relative to the number of intracellular bacteria that were recovered from cells that were not treated with the compounds. The charts show the mean and standard error of the mean (SEM) of six biological repeats in two independent experiments, biological repeats.

caspase 3 = experiment: Caspase 3 activity in HeLa cells (Multiplex Activity Fluorometric Assay Kit); assay type: cell-based, human; details: HeLa cells infected with S. Typhimurium
Source text: (§1) One of the possible mechanisms that could explain the activity of the compounds in inhibiting infection by different pathogens is inducing programed cell death in infected cells. To examine this experimentally, the present inventors have used Caspase-3, Caspase-8 and Caspase-9 Multiplex Activity Fluorometric Assay Kit (ab219915) to monitor caspase 3, caspase 8 and caspase 9 activity in HeLa cells infected with S. Typhimurium in the presence and absence of the compounds.

caspase 8 = experiment: Caspase 8 activity in HeLa cells (Multiplex Activity Fluorometric Assay Kit); assay type: cell-based, human; details: HeLa cells infected with S. Typhimurium
Source text: as §1

SMILES	inhibition of Listeria monocytogenes infection of HeLa cells [1]	caspase 3 activity in infected cells (caspase 3)	Caspase 8 activity in infected HeLa cells (caspase 8)
CN1CCN(CCOc2cc(OC3CCOCC3)c3c(Nc4c(Cl)ccc5c4OCO5)ncnc3c2)CC1 [Compound 1]	able to actively inhibit		
CC(C)(C)NCC(O)COc1ccccc1C1CCCC1 (stereo not shown) [Compound 2]		significantly higher activity	
COc1ccccc1C1(CCNCc2ccc(N(C)C)cc2)CCOC(C)(C)C1 (stereo not shown) [Compound 4]	able to actively inhibit	significantly higher activity	
Cc1cc(Nc2ncnc3ccc(-c4ccc(CNCCS(C)(=O)=O)o4)cc23)ccc1Oc1ccn2ncnc2c1 [Compound 5]	able to actively inhibit	significantly higher activity	significantly higher activity
Cc1nc2c([nH]1)CCN(C(=O)c1ccc(NC(=O)c3ccccc3-c3ccccc3)cc1)c1ccccc1-2 [Compound 6]		significantly higher activity	
O=C(Nc1ccno1)Nc1ccc(Cl)cc1Cl [Compound 7]	able to actively inhibit	significantly higher activity	significantly higher activity
CCc1cc2c(cc1CC)CC(NC[C@@H](O)c1ccc(O)c3[nH]c(=O)ccc13)C2 [Compound 8]	able to actively inhibit	significantly higher activity	
